Measurements as given in PubChem BioAssay (NCI).
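How tested: cells in 96-well plates exposed to compound for 48 hours at five concentrations. TGI marks complete inhibition of growth.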

What was measured:
Experiment in all cases: NCI-60 cell line screen, 48 h
[1] = system: UACC-257 melanoma
[2] = system: PC-3 prostate
[3] = system: SNB-19 CNS
[4] = system: UACC-62 melanoma
[5] = system: HOP-92 NSCLC
[6] = system: RPMI-8226 leukemia
[7] = system: OVCAR-8 ovarian
[8] = system: NCI-H226 lung
[9] = system: HL-60(TB) leukemia
[10] = system: SF-295 CNS

SMILES: CC1CC(C)(C)CC(OCCN2CCCCC2)(c2ccccc2)C1 (stereo not given)
- TGI [1]: 24.2 µM
- TGI [2]: 25.6 µM
- TGI [3]: 26.7 µM
- TGI [4]: 29.6 µM
- TGI [5]: 21.7 µM
- TGI [6]: 20.3 µM
- TGI [7]: 30.3 µM
- TGI [8]: 38.3 µM
- TGI [9]: 27.9 µM
- TGI [10]: 22.9 µM

SMILES: O=c1ccc(=O)c2c1c1[nH]c3ccccc3c1c1c(=O)c3ccccc3c(=O)c21
- TGI [1]: > 10 µM
- TGI [2]: > 10 µM
- TGI [3]: > 10 µM
- TGI [4]: > 10 µM
- TGI [5]: > 10 µM
- TGI [6]: > 10 µM
- TGI [7]: > 10 µM
- TGI [8]: > 10 µM
- TGI [9]: 9.85 µM
- TGI [10]: > 10 µM

SMILES: Cc1cc(C)nc(NS(=O)(=O)c2ccc(NC(=O)c3ccc4nc5ccccc5c(Nc5ccc(S(=O)(=O)N=C(N)N)cc5)c4c3)cc2)n1
- TGI [1]: > 100 µM
- TGI [2]: > 100 µM
- TGI [3]: > 100 µM
- TGI [4]: > 100 µM
- TGI [5]: > 100 µM
- TGI [6]: > 100 µM
- TGI [7]: > 100 µM
- TGI [8]: > 100 µM
- TGI [9]: > 100 µM
- TGI [10]: > 100 µM

SMILES: CCCCCCCCCCCCCCCCOC[C@H](COC(c1ccccc1)(c1ccccc1)c1ccccc1)O[P+](=S)OC (stereo not given in full)
- TGI [1]: > 100 µM
- TGI [2]: > 100 µM
- TGI [3]: > 100 µM
- TGI [4]: > 100 µM
- TGI [5]: > 100 µM
- TGI [6]: > 100 µM
- TGI [7]: > 100 µM
- TGI [8]: > 100 µM
- TGI [9]: > 100 µM
- TGI [10]: > 100 µM

SMILES: COC(=O)[C@]1(c2cc3ccccc3[nH]2)CC2CNC1C1OC(C)(C)OC21 (stereo not given in full)
- TGI [1]: > 100 µM
- TGI [2]: > 100 µM
- TGI [3]: > 100 µM
- TGI [4]: > 100 µM
- TGI [5]: > 100 µM
- TGI [6]: > 100 µM
- TGI [7]: > 100 µM
- TGI [8]: > 100 µM
- TGI [9]: > 100 µM
- TGI [10]: > 100 µM

SMILES: CN=C1C=C(/N=C2/C=C(N/C(=C\C#N)C(C)(C)O)OC2(C)C)OC1(C)C
- TGI [1]: > 100 µM
- TGI [2]: > 100 µM
- TGI [3]: > 100 µM
- TGI [4]: > 85.8 µM
- TGI [5]: > 71.5 µM
- TGI [6]: > 69.6 µM
- TGI [7]: > 47.2 µM
- TGI [8]: > 100 µM
- TGI [9]: 5.83 µM
- TGI [10]: > 100 µM

SMILES: Cc1cc(S(=O)(=O)NC2=NCc3c(F)cccc3N2)c(S)cc1Cl
- TGI [1]: > 100 µM
- TGI [2]: > 100 µM
- TGI [3]: > 100 µM
- TGI [4]: > 100 µM
- TGI [5]: > 100 µM
- TGI [6]: > 100 µM
- TGI [7]: > 100 µM
- TGI [8]: > 100 µM
- TGI [9]: > 100 µM
- TGI [10]: > 100 µM

SMILES: CSC1=C(C)C(/C=N/Nc2ccc([N+](=O)[O-])cc2)=C(C)N(c2ccccc2)S1(=O)=O
- TGI [1]: > 100 µM
- TGI [2]: > 100 µM
- TGI [3]: > 100 µM
- TGI [4]: > 100 µM
- TGI [5]: > 100 µM
- TGI [6]: > 100 µM
- TGI [7]: > 100 µM
- TGI [8]: > 100 µM
- TGI [9]: 17.5 µM
- TGI [10]: > 100 µM

SMILES: CC(C)(C)OC(=O)N1CCC2(CC1)C(=O)NCN2c1ccccc1
- TGI [1]: > 100 µM
- TGI [2]: > 100 µM
- TGI [3]: > 100 µM
- TGI [4]: > 100 µM
- TGI [5]: > 100 µM
- TGI [6]: > 100 µM
- TGI [7]: > 100 µM
- TGI [8]: > 100 µM
- TGI [9]: > 100 µM
- TGI [10]: > 100 µM

SMILES: COc1ccc(Nc2nc(N)c(C(=O)c3ccco3)s2)cc1
- TGI [1]: > 100 µM
- TGI [2]: > 100 µM
- TGI [3]: > 100 µM
- TGI [4]: > 100 µM
- TGI [5]: > 100 µM
- TGI [6]: > 85.4 µM
- TGI [7]: > 100 µM
- TGI [8]: > 72.2 µM
- TGI [9]: 17.7 µM
- TGI [10]: > 100 µM

SMILES: Cc1c(C)c2c(c(N)c1C#N)C(=O)N(NC(=S)Nc1ccccc1)C2=O
- TGI [1]: > 100 µM
- TGI [2]: > 100 µM
- TGI [3]: > 100 µM
- TGI [4]: > 100 µM
- TGI [5]: > 100 µM
- TGI [6]: > 100 µM
- TGI [7]: > 100 µM
- TGI [8]: > 100 µM
- TGI [9]: > 100 µM
- TGI [10]: > 100 µM

SMILES: COc1cc2c(cc1OCCN1CCN(CCOc3cc4c(cc3OC)C(=O)N3CCC[C@H]3C=N4)CC1)N=C[C@@H]1CCCN1C2=O
- TGI [1]: > 100 µM
- TGI [2]: > 93.9 µM
- TGI [3]: > 100 µM
- TGI [4]: 40 µM
- TGI [5]: 4.27 µM
- TGI [6]: 15.4 µM
- TGI [7]: > 100 µM
- TGI [8]: 66.2 µM
- TGI [9]: > 100 µM
- TGI [10]: 67.3 µM

SMILES: CC(C)(C)[C@H]1NC(=O)CN1C(=O)OCc1ccccc1
- TGI [1]: > 100 µM
- TGI [2]: > 100 µM
- TGI [3]: > 100 µM
- TGI [4]: > 100 µM
- TGI [5]: 31.9 µM
- TGI [6]: > 100 µM
- TGI [7]: > 100 µM
- TGI [8]: > 100 µM
- TGI [9]: > 100 µM
- TGI [10]: > 100 µM

SMILES: CCOc1ccc(Nc2nc(N)nc(N)c2N=O)cc1
- TGI [1]: > 100 µM
- TGI [2]: > 100 µM
- TGI [3]: > 100 µM
- TGI [4]: > 100 µM
- TGI [5]: 62.8 µM
- TGI [6]: > 100 µM
- TGI [7]: > 100 µM
- TGI [8]: > 100 µM
- TGI [9]: > 100 µM
- TGI [10]: > 100 µM
